What all share (experiment): NCI-60 cell line screen, 48 h
Test [1] deals with A498 renal.
The subject of test [2] is OVCAR-4 ovarian.
Test [3] has as its system RPMI-8226 leukemia.
Test [4] concerns HL-60(TB) leukemia.
Test [5] relates to K-562 leukemia.
In test [6] the test system is TK-10 renal.
Test [7] relates to HCT-116 colon.
The subject of test [8] is SNB-19 CNS.
Test [9] concerns DU-145 prostate.
In test [10] the test system is UACC-257 melanoma.
The test system of test [11] is BT-549 breast.

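1) Cells in 96-well plates. 2) Compound, 48 h, 5 concentrations. 3) Linear interpolation between surrounding doses. 4) Unreached endpoint = highest concentration. Here, GI50 denotes the concentration required for 50% inhibition of growth. TGI marks complete inhibition of growth.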 Bounds are passed on as bounds.

Turning to `COC(=O)C1C=CCON2CCc3c(n(C)c4ccccc34)C12` (stereo not drawn), the TGI in test [1], in test [2], in [3], in test [4], in test [5] and in [6] was more than 100 µM in each case. For the same compound, the TGI in test [7] and in test [8] was more than 100 µM in each case.

For `CC1(C)C(CCO)CC1n1cc(I)c(=O)[nH]c1=O` (stereo not drawn), the TGI in [1], in test [2], in test [9], in [3], in test [10] and in test [5] was more than 100 µM each time. In addition, the TGI in [6], in [7] and in test [8] was more than 100 µM each time.

Turning to `O=C(c1ccccc1)n1cc(-c2ccccc2)c2c(=O)[nH]cnc21`, the TGI in [1], in test [11], in [2], in [9], in test [3] and in test [10] was more than 100 µM each time. Also, the TGI in test [6], in test [7] and in test [8] was more than 100 µM throughout.

`COC(=O)/C(=N/Nc1cccc(Cl)c1)C(C(=O)C(=O)Nc1cccc(Cl)c1C)c1nc2ccccc2nc1C` (stereo not drawn): the TGI in [1], in test [2], in test [3], in test [4], in test [10] and in test [5] was more than 100 µM in each case. For the same compound, the TGI in [6] and in test [7] was more than 100 µM each time.

Consider `O=C(CCC(=O)CC(O)(C(F)(F)F)C(F)(F)F)CC(O)(C(F)(F)F)C(F)(F)F`, for which the TGI in test [1] was 67.4 µM; in test [2] it was more than 100 µM; in [9] it was more than 100 µM; in test [3], 97.8 µM; in test [4], 91.2 µM; in test [10], more than 100 µM. The TGI in test [5] was more than 100 µM; in test [6], more than 100 µM; in test [7], more than 100 µM; in test [8], 72.4 µM.

As to `O=[N+]([O-])c1ccccc1S(=O)(=O)c1ccccc1`, the TGI in test [1], in test [2], in test [3], in test [4], in test [10] and in test [5] was more than 100 µM in each case. In addition, the TGI in test [6] and in [7] was more than 100 µM in each case.

In the case of `O=[N+]([O-])c1ccc(N/N=C/CC(O)(C(F)(F)F)C(F)(F)F)c([N+](=O)[O-])c1`, the TGI in [1], in test [2], in [9], in [3], in test [4] and in [10] was more than 10 µM in each case. For the same compound, the TGI in test [5], in [6], in [7] and in [8] was more than 10 µM each time.

`CN(C)c1ccc(C=C2C(=O)N(c3ccccc3)N(c3ccccc3)C2=O)cc1`: the TGI in [1], in test [9], in test [3], in test [5], in test [6] and in test [7] was more than 100 µM in each case. This compound also returned a TGI in [8] of more than 100 µM.

In the case of `COc1cc(C2=NNC(=O)c3ccccc3N2c2nc(-c3cccs3)nc3ccc(Br)cc23)cc(OC)c1OC`, the TGI was 91.9 µM in test [1]; more than 100 µM in [11]; 86.4 µM in test [2]; 87.9 µM in [9]; 12.9 µM in test [3]; more than 100 µM in test [10]. Moreover, the TGI was 89.9 µM in [6], 26.9 µM in [7] and more than 100 µM in test [8].

With `O=S(OC12CC3CC(CC(C3)C1)C2)c1cc(Cl)cc(Cl)c1OCc1ccccc1` (stereo not drawn), the TGI in test [1], in test [2], in test [4], in test [10], in test [5] and in test [6] was more than 100 µM throughout. Moreover, the TGI in test [7] and in test [8] was more than 100 µM in each case.

Consider `COc1ccc2c(c1)C/C(=C\c1cccc3ccccc13)C2=O`, for which the TGI in [1], in [11], in test [2], in [3], in test [4] and in test [5] was more than 100 µM in each case. In addition, the TGI in test [6] and in test [8] was more than 100 µM each time.

Turning to `O=C1Nc2ccccc2Cn2c1cc1oc(-c3ccccc3)cc12`, the TGI in test [1], in test [2], in [9], in test [4], in test [10] and in test [5] was more than 100 µM in each case. For the same compound, the TGI in test [6] is more than 100 µM; in [8], 66.5 µM.

As to `Nc1ccccc1.[C-]#[O+].[C-]#[O+].[C-]#[O+].[C-]#[O+].[C-]#[O+].[Cr]`, the GI50 in test [1] is 3 µM; in test [2], 6.7 µM; in test [9], more than 10 µM; in test [3], 3.39 µM; in [4], 1.68 µM; in [5], 2.98 µM. The GI50 is 4.83 µM in test [6], 2.9 µM in [7] and 6.89 µM in [8]. For the same compound, the TGI in test [1] was 8.28 µM; in test [2] it was more than 10 µM; in test [9], more than 10 µM; in test [3], more than 10 µM; in [4], 6.94 µM; in test [5] it was more than 10 µM. Besides, the TGI in test [6], in test [7] and in test [8] was more than 10 µM in each case.

For `COC(=O)CCc1ccc2c(c1)C(=O)CC2`, the TGI in test [1], in test [2], in [9], in [3], in [4] and in test [10] was more than 100 µM throughout. In addition, the TGI in test [5], in [6], in [7] and in test [8] was more than 100 µM each time.

For the compound `Cc1nc2c(o1)C(=Nc1ccccc1)c1ccccc1C2=O`, the TGI in test [1] was 54.4 µM; in test [3], 38.1 µM; in [4], 66.1 µM; in test [10] it was 19.5 µM; in test [5] it was more than 100 µM; in [6], 69.9 µM. Besides, the TGI amounted to 23.2 µM in test [7] and 23.7 µM in [8].

Take `CCCCCCCCCCCCc1ccc(S(=O)(=O)O)cc1.[Zn+2]`: the TGI in test [1] is 95.9 µM; in test [2] it was more than 100 µM; in test [9], more than 100 µM; in test [3], more than 100 µM; in test [4], more than 100 µM; in test [10], more than 100 µM. Moreover, the TGI in test [5], in test [6], in test [7] and in [8] was more than 100 µM throughout.

For the compound `CCN(CC)c1ccc(N=Nc2ccc([N+](=O)[O-])cc2OC(=O)/C=C/c2ccccc2)c(OC(=O)/C=C/c2ccccc2)c1`, the TGI is more than 58.4 µM in [1]; more than 100 µM in test [2]; more than 100 µM in test [3]; more than 44 µM in test [4]; 99.7 µM in test [10]; more than 100 µM in test [5]. The TGI in [6], in test [7] and in test [8] was more than 100 µM in each case.

On to `O=C1c2ccccc2C(=O)c2sc(Nc3ccccc3C(F)(F)F)nc21`, for which the TGI in [1] was 28.9 µM; in test [9], 31.7 µM; in test [3], 74.4 µM; in test [4], 17.7 µM; in [10], 32.4 µM; in test [5], 14.8 µM. Besides, the TGI in test [6] is 35.7 µM; in test [7], more than 100 µM; in test [8] it was 55.2 µM.

For `O=c1cc(-c2c[nH]c3ccccc23)[nH]c2cc3c(cc12)OCO3`, the TGI in [1], in test [2], in test [3], in test [4], in test [10] and in test [5] was more than 100 µM throughout. Moreover, the TGI in test [6], in test [7] and in test [8] was more than 100 µM each time.

Turning to `CCC/C=C1\CCC(CN(C)C)C1=O` (stereo not drawn), the TGI in [1] is 23.9 µM; in test [2], 38.6 µM; in test [3] it was 2.75 µM; in test [4], 31.5 µM; in test [10], 30.8 µM; in test [6] it was 14.6 µM. Also, the results for the TGI in [7] and in test [8] were 23.1 µM and more than 67 µM, respectively.

Consider `COP(=O)(OC)C(NC(=O)C(F)(F)F)(c1ccccc1)C(F)(F)F` (stereo not drawn), for which the TGI in test [1], in [2], in test [3], in [4], in [10] and in test [5] was more than 100 µM each time. The TGI in test [6], in [7] and in test [8] was more than 100 µM each time.

Regarding `O=C(NC1CCCCC1)c1cc2ccccc2cc1O`, the TGI in test [1] is 78.3 µM; in [2], more than 100 µM; in test [9] it was more than 100 µM; in test [3], 46.6 µM; in [4] it was 96.1 µM; in test [10] it was more than 100 µM. Besides, the TGI was 55.9 µM in test [5], more than 100 µM in [6], 47.6 µM in [7] and more than 100 µM in [8].

On to `CCOP(=O)(OCC)C(c1ccccc1)N(C(=O)NC(F)(F)F)c1cccc(F)c1` (stereo not drawn), for which the TGI in test [9], in test [3], in [4], in test [10], in test [5] and in test [6] was more than 100 µM each time. Further, the TGI in test [7] and in test [8] was more than 100 µM in each case.

On to `O=C1C=C2SC3C[C@@]24CC1[N+]1=c2c4c(c(O)c4c2=C(C=N4)CC1)N3`, for which the TGI stood at 16.6 µM in [1]; 3.13 µM in [2]; 7.38 µM in test [3]; 3.78 µM in test [4]; 3.17 µM in [10]; 8.26 µM in [5]. For the same compound, the results for the TGI in [7] and in [8] were 3.35 µM and 9.66 µM, respectively.

As to `C[n+]1c(-c2ccc(/C=N/Nc3ccnc(N/N=C/c4ccc(-c5cn6ccsc6[n+]5C)cc4)n3)cc2)cn2ccsc21`, the TGI is 65.3 µM in [1]; 78.5 µM in test [11]; more than 100 µM in [2]; 82 µM in [9]; more than 100 µM in [3]; 76.2 µM in test [10]. In addition, the TGI is 39.7 µM in test [5], more than 100 µM in [6] and more than 100 µM in test [8].

Take `O=c1[nH]c(=O)n(C2CC(O)C(CO)O2)cc1NN=NCCCc1ccccc1` (stereo not drawn): the TGI in test [1], in test [2], in test [9], in test [4], in test [10] and in test [6] was more than 100 µM in each case. This compound also yielded a TGI in test [7] of more than 100 µM.

For the compound `O=C1C=CC(=C(c2ccc(O)cc2)c2ccc(O)cc2)C=C1`, the TGI in test [1] was determined as 32 µM; in [2] it was 27.6 µM; in test [3], 21 µM; in [4], 13.4 µM; in test [10], 21.7 µM; in test [5], 14.2 µM. The TGI in test [6] amounted to 33.4 µM; in test [7], 22.7 µM; in test [8], 29.3 µM.

With `CCCC(C)n1c(C)nc2c1C(=O)c1ccccc1C2=O` (stereo not drawn), the TGI is more than 100 µM in [2]; more than 100 µM in [4]; 63.1 µM in test [10]; more than 100 µM in test [5]; more than 100 µM in test [6]; 19.5 µM in [7]. Further, the TGI in test [8] was more than 100 µM.

With `COc1cc(CNc2cnc3cc(N)ccc3n2)cc(OC)c1OC`, the TGI in test [1] is more than 100 µM; in test [2], more than 100 µM; in [4], 39.8 µM; in test [10] it was more than 100 µM; in [5], more than 100 µM; in test [6], more than 100 µM. In addition, the figures for the TGI in test [7] and in test [8] were 50.2 µM and more than 100 µM, respectively.

The record behind these values is PubChem BioAssay (NCI).
